System: HIVBRU
Assay: HIV-p24 antigen released from HIV-infected A3.01 cells stimulated with TNF-α
Format: cell-based
Conditions: AZT 2 µg/ml in place of SBA, HIV-infected A3.01 cells
Source text: In view of all these test results, it appears that the inhibitory activity of SBA against the replication of HIV-1 is not attributable to that SBA directly acts on HIV so as to make lose the infectivity (infectious power) of HIV. (c) Test of examining the inhibitory activity of SBA against such replication of the viral particles of HIV which is induced when a tumor necrosis factor (TNF-α) is introduced into the HIV-infected A3.01 cells AIDS virus, HIVBRU (its reverse transcriptase activity, 0.03 cpm/cell) and 6 x 10^6 cells of the A3.01 cell (HAT-susceptible CEM cell strain) were mixed and reacted together in a culture medium at 37°C for 1 hour, and thereafter the mixed cells were washed with PBS to remove the excess of the particles of HIV virus therefrom. The A3.01 cells (5 x 10^5 cells) which had been so infected with HIV were then cultivated in various culture media containing TNF-α and SBA at different concentrations of them. The amount of the HIV-p24 antigen (an HIV-structural protein of HIV) which was released in the culture supernatant from the cultivated cells under test was periodically measured during the period of between 0 day to 5th day of the cultivation. The culture medium used for the above-mentioned cultivation of the A3.01 cells was an RPM1-1640 medium comprising 10% of heat-treated embryonic bovine serum, and minor amounts of penicillin, streptomycin, glutamine and mercaptoethanol. The amount of the HIV-p24 antigen produced was measured with lapse of time, and the relationship of the amount of the HIV-p24 antigen to the concentration of SBA is summarily tabulated in Table 4 below.
In the tests above, the replication of the viral particles of HIV was examined in terms of the amount of the p24 antigen protein produced and appearing in the culture supernatant from the cultivated cells. Thus, the amount of the p24 antigen produced was measured periodically over 6 days after the A3.01 cells were infested with HIV. It was then observed that in the absence of SBA, the replication of the viral particles of HIV was induced in the A3.01 cells by stimulation with 10 units/ml of TNF-α added. […] Thus, the effective amount of SBA has the activity to inhibit the replication of the viral particles of HIV within the cells to an extent as same as AZT, and from this it is expected that SBA is useful similarly to AZT for the therapeutic treatments of AIDS. (d) Tests for evaluating an inhibitory activity of SBA to the formation of giant cells from HIV-infected Molt-4 cells In a similar manner to that in the above Test (c), Molt-4 cells (a CD4-positive human T-cell strain) were infected with AIDS virus, HIVBRU. Thereafter, The HIV-infected Molt-4 cells were mixed with such Molt-4 cells which had no HIV-infection. And the mixture of these cells were cultivated at a high density of the mixed cells in the above-mentioned improved RPM1-1640 medium containing SBA at its different concentrations. Whereupon, there was examined the presence of cell-fused cell(s) (namely, the giant cells) which were formed by fusion of the HIV-infected cells with each other or by fusion of the HIV-infected cells with the HIV-non-infected cells. The formation and appearance of the giant cells was confirmed by microscopic observation. The size of such giant cells is clearly different from the size of the other usual cells. […] Namely, it is shown that SBA has an anti-HIV activity. […] In the initial stage of the transcription of HIV-1 gene, said NFkB, i.e. the transcription regulating factor of the host cells, plays an important role. […] NFkB is known to be a complex protein which is composed by the association of a molecule of protein having a molecular weight of about 50,000 (p50) with a molecule of protein having a molecular weight of about 65,000 (p65). […]

Measured: Amount of the HIV p24 antigen

Cc1cn([C@H]2C[C@H](N=[N+]=[N-])[C@@H](CO)O2)c(=O)[nH]c1=O [AZT, azidothymidine, reference compound]
0 pg/mL: 0th day | 1st day | 2nd day | 3rd day | 4th day | 5th day
